In US9771333B2, “Quinazoline derivatives as TAM family kinase inhibitors” (SIGNALCHEM LIFESCIENCES CORP., priority 2013, dated 2017):

Columns and labels:
Assay type in all cases: biochemical
[1] = target: T1, human Tyro3 (Homo sapiens, UniProt Q06418); test: Kinase enzymatic activity assay (33P-radiolabeled phosphate transfer), Tyro3; conditions: recombinant human Tyro3 (455-end), poly(4:1 glu:tyr) substrate, 30 minutes
T1 construct: GST (N); made in house; host or cells: Sf9 insect cells (baculovirus)
T1 sequence (Q06418 455-890 limits assumed): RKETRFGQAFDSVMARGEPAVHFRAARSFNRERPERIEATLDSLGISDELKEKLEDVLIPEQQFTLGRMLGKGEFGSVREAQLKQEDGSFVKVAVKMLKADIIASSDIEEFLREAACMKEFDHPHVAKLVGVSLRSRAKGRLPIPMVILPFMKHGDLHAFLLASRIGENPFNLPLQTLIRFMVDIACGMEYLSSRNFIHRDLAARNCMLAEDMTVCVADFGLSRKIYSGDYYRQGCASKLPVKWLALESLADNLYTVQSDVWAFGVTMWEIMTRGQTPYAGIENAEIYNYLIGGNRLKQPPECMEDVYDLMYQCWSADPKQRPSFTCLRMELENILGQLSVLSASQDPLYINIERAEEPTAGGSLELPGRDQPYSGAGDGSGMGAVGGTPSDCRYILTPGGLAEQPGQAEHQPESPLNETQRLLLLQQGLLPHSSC
From the text: (§1) The identification of compounds of the invention as Tyro3, Axl or Mer inhibitors was readily accomplished using the recombinant human Tyro3, Axl and Mer proteins and employing the ^33P-radiolabeled phosphate transfer assay for which the procedure is known to someone skilled in the art or as described in Example 9.
(§2) Recombinant human Tyro3 (455-end, the gene accession number NM_006293), human Axl (473-end, the gene accession number NM_021913) and human Mer (578-872, the gene accession number NM_006343) were independently expressed by baculovirus in Sf9 insect cells using an N-terminal GST tag. The recombinant proteins were stored at −70° C. in a medium containing 50 mM Tris-HCl, pH 7.5, 150 mM NaCl, 10 mM glutathione, 0.1 mM EDTA, 0.25 mM DTT, 0.1 mM PMSF and 25% glycerol. The recombinant proteins were aliquoted into smaller quantities after centrifugation to avoid repeated handling and multiple freeze/thaw cycles for the most favorable performance.
(§3) Kinase Assay Buffer: This buffer solution consisted of the following components: 25 mM MOPS, pH 7.2, 12.5 mM β-glycerol-phosphate, 25 mM MgCl2, 5 mM EGTA, 2 mM EDTA and DTT 0.25 mM which was added prior to use.
(§4) Kinase Dilution Buffer: Kinase Assay Buffer was diluted at a 1:4 ratio (5× dilution) with distilled water.
(§5) [^33P]-ATP assay cocktail: In a designated radioactive working area, a 250 μM [^33P]-ATP assay cocktail was prepared by the addition of the following components: 150 μL of 10 mM ATP stock solution, 100 μL [^33P]-ATP (1 mci/100 μL), and 5.75 mL of kinase assay buffer. This solution was stored in 1 mL aliquots at −20° C.
(§6) ATP stock solution (10 mM): The ATP stock solution was prepared by dissolving 55 mg of ATP in 10 mL of kinase assay buffer. It was stored in 200 μL aliquots at −20° C.
(§7) Active Kinase Stock Solution: The active recombinant kinase protein (0.1 μg/μL) was diluted with Kinase Dilution Buffer and the activity was assayed using a serial dilution method. The specific activity is expressed in nmoL/min/mg.
(§8) Substrates: poly(4:1 glu:tyr) is the substrate used for each kinase Tyro3, Axl and Mer: The peptide substrate was dissolved in water to give the final concentration of 1 mg/mL.
(§9) Test compound solution: Test compound was dissolved in DMSO to obtain a 10 mM solution. The assay solution was prepared by adding 5 μL of this solution to […] of 10% DMSO/water to obtain the final concentration of 50 μM.
(§10) The enzymatic activity of all three kinases was determined as follows. Using a 96-well plate, the wells were divided into three categories: Blank wells, […] and Test wells. In Test wells, 5 μL of the test compound solution and 5 μL of the substrate solution were added. In Control wells, 5 μL of 10% DMSO/water and 5 μL of the substrate solution were added. In Blank wells, 10 μL of 10% DMSO/water was added. To each well was added 10 μL of Active Kinase Stock Solution to make up the volume in each well to 20 μL. All test samples, controls and blanks were run in duplicate. The reaction was initiated by the addition of 5 μL of [^33P]-ATP assay cocktail, bringing the final volume up to 25 μL in every well. The mixture was incubated at room temperature for 30 minutes. The reaction was terminated by transferring 10 μL of the reaction mixture into a Millipore MultiScreen filter plate (cat. number MSPHN6B50). The filter plate was washed in a 1% phosphoric acid solution with constant gentle shaking for 15 minutes and this step was repeated once. After the plate was dried in air, scintillation fluid was added to each well and the radioactivity in each well in CPM was counted by a Microbeta TriLux. The corrected CPM in each test well was determined by subtracting the average value of Blank well values. Percentage of inhibition of the kinase enzymatic activity by the test compound was determined using the following formula: […]
(§11) The IC50 values were determined in a similar way following a serial dilution of the test compound. […]

[2] = target: T2, human Axl (Homo sapiens, UniProt P30530); test: Kinase enzymatic activity assay (33P-radiolabeled phosphate transfer), Axl; conditions: recombinant human Axl (473-end), poly(4:1 glu:tyr) substrate, 30 minutes
T2 construct: GST (N); made in house; host or cells: Sf9 insect cells (baculovirus)
T2 sequence (P30530 473-894 limits assumed): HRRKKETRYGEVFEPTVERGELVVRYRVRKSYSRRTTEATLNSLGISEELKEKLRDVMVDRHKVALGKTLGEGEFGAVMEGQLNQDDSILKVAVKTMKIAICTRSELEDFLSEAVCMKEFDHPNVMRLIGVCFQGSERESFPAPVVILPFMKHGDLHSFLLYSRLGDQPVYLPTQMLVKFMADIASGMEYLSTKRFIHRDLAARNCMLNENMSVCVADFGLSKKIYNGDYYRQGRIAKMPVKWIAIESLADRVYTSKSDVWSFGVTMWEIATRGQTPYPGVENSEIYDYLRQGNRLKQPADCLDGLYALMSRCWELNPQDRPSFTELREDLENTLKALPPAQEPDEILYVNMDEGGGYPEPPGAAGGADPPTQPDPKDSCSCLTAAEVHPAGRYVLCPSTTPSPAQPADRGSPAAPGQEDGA
From the text: as §1, §2, §3, §4, §5, §6, §7, §8, §9, §10, §11

[3] = target: T3, human Mer (Homo sapiens, UniProt Q12866); test: Kinase enzymatic activity assay (33P-radiolabeled phosphate transfer), Mer; conditions: recombinant human Mer (578-872), poly(4:1 glu:tyr) substrate, 30 minutes
T3 construct: GST (N); made in house; host or cells: Sf9 insect cells (baculovirus)
T3 sequence (Q12866 578-872): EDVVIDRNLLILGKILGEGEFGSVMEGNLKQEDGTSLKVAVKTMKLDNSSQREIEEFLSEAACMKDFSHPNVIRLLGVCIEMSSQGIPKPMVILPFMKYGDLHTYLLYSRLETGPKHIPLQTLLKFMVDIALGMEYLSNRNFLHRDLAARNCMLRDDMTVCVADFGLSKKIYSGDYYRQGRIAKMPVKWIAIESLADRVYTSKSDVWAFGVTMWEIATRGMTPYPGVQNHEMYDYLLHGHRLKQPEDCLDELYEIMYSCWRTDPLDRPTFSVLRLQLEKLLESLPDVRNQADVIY
From the text: as §1, §2, §3, §4, §5, §6, §7, §8, §9, §10, §11

SMILES	IC50 [1] [µM]	IC50 [2] [nM]	IC50 [3] [µM]
CN(C)CCOCCOc1cc(OC2CCOCC2)c2c(Nc3nc(C(F)(F)F)cs3)ncnc2c1 [Example 2.56, N-(7-(2-(2-(dimethylamino)ethoxy)ethoxy)-5-((tetrahydro-2H-pyran-4-yl)oxy)quinazolin-4-yl)-4-(trifluoromethyl)thiazol-2-amine]	> 10	< 500	1 to 10
CN1CCC(COc2cc(OC3CCOCC3)c3c(Nc4nc(C(F)(F)F)cs4)ncnc3c2)CC1 [Example 2.23, N-(7-((1-methylpiperidin-4-yl)methoxy)-5-((tetrahydro-2H-pyran-4-yl)oxy)quinazolin-4-yl)-4-(trifluoromethyl)thiazol-2-amine]	> 10	< 500	> 10
FC(F)(F)c1csc(Nc2ncnc3cc(OCCN4CCOCC4)cc(OC4CCOCC4)c23)n1 [Example 2.53, N-(7-(2-morpholinoethoxy)-5-((tetrahydro-2H-pyran-4-yl)oxy)quinazolin-4-yl)-4-(trifluoromethyl)thiazol-2-amine]	> 10	1000 to 10000	> 10
c1csc(Nc2ncnc3cc(OCCCN4CCOCC4)cc(OC4CCOCC4)c23)n1 [Example 2.21, N-(7-(3-morpholinopropoxy)-5-((tetrahydro-2H-pyran-4-yl)oxy)quinazolin-4-yl)thiazol-2-amine]	1 to 10	< 500	< 0.5
CN(C)CCCN(C)c1cc(OC2CCOCC2)c2c(Nc3nc(C(F)(F)F)cs3)ncnc2c1 [Example 2.59, N^7-(3-(dimethylamino)-propyl)-N^7-methyl-5-((tetrahydro-2H-pyran-4-yl)oxy)-N^4-(4-(trifluoromethyl)thiazol-2-yl)quinazoline-4,7-diamine]	> 10	500 to 1000	> 10
Cc1csc(Nc2ncnc3cc(OCC4CCN(C)CC4)cc(OC4CCOCC4)c23)n1 [Example 2.42, 4-methyl-N-(7-((1-methylpiperidin-4-yl)methoxy)-5-((tetrahydro-2H-pyran-4-yl)oxy)quinazolin-4-yl)thiazol-2-amine]	1 to 10	< 500	< 0.5
CN1CCC(CCOc2cc(OC3CCOCC3)c3c(Nc4nc(C(F)(F)F)cs4)ncnc3c2)CC1 [Example 2.45, N-(7-(2-(1-methylpiperidin-4-yl)ethoxy)-5-((tetrahydro-2H-pyran-4-yl)oxy)quinazolin-4-yl)-4-(trifluoromethyl)thiazol-2-amine]	> 10	< 500	1 to 10
COc1cc(OCCCN2CCOCC2)cc2ncnc(Oc3cccc(C(=O)NCc4ccccc4)c3)c12 [Example 2.28, N-benzyl-3-((5-methoxy-7-(3-morpholinopropoxy)quinazolin-4-yl)oxy)benzamide]	> 10	> 10000	> 10

The next lines start with the values.

IC50 [1] [µM]	IC50 [2] [nM]	IC50 [3] [µM]	SMILES
1 to 10	< 500	< 0.5	CN1CCC(COc2cc(OC3CCOCC3)c3c(Nc4ccon4)ncnc3c2)CC1 [Example 2.61, N-(7-((1-methylpiperidin-4-yl)methoxy)-5-((tetrahydro-2H-pyran-4-yl)oxy)-quinazolin-4-yl)isoxazol-3-amine]
0.5 to 1	1000 to 10000	1 to 10	CN1CCN(CCOc2cc(OC3CCOCC3)c3c(Oc4ccc(F)cc4Cl)ncnc3c2)CC1 [Example 3, 4-(2-chloro-4-fluorophenoxy)-7-(2-(4-methylpiperazin-1-yl)ethoxy)-5-((tetrahydro-2H-pyran-4-yl)oxy)quinazoline]
1 to 10	1000 to 10000	> 10	COCCOc1cc(OCCN2CCN(C)CC2)cc2ncnc(Sc3cc(Cl)cc(Cl)c3)c12 [Example 4.2, 4-((3,5-dichlorophenyl)thio)-5-(2-methoxyethoxy)-7-(2-(4-methylpiperazin-1-yl)ethoxy)quinazoline]
0.5 to 1	1000 to 10000	> 10	COC(=O)Cc1cccc(Oc2ncnc3cc(OCCN4CCN(C)CC4)cc(OC4CCOCC4)c23)c1 [Example 2.31, methyl 2-(3-((7-(2-(4-methylpiperazin-1-yl)ethoxy)-5-((tetrahydro-2H-pyran-4-yl)oxy)quinazolin-4-yl)oxy)phenyl)acetate]
< 0.5	< 500	0.5 to 1	CN1CCC(COc2cc(OC3CCOCC3)c3c(Oc4ccc(C(F)(F)F)cc4)ncnc3c2)CC1 [Example 4.11, 7-((1-methylpiperidin-4-yl)methoxy)-5-((tetrahydro-2H-pyran-4-yl)oxy)-4-(4-(trifluoromethyl)phenoxy)quinazoline]
1 to 10	> 10000	1 to 10	COCCOCCOc1cc(OC2CCOCC2)c2c(Oc3ccc(F)cc3Cl)ncnc2c1 [Example 2.4, 4-(2-chloro-4-fluorophenoxy)-7-(2-(2-methoxyethoxy)ethoxy)-5-((tetrahydro-2H-pyran-4-yl)oxy)quinazoline]
< 0.5	1000 to 10000	> 10	COCCOc1cc(OCCN2CCN(C)CC2)cc2ncnc(Sc3ccc(F)c(Br)c3)c12 [Example 4.5, 4-((3-bromo-4-fluorophenyl)thio)-5-(2-methoxyethoxy)-7-(2-(4-methylpiperazin-1-yl)ethoxy)quinazoline]
